Experimental data as given in PMC10493395, “Optimization of a small molecule inhibitor of secondary nucleation in α-synuclein aggregation” (Frontiers in Molecular Biosciences, 2023).

Molecular target: T1, α-synuclein (Homo sapiens, UniProt P37840)
T1 construct: gene SNCA; preformed fibrils of recombinant wild-type α-synuclein
Test: fibril ultracentrifugation depletion with LC-MS of unbound compound in the supernatant, dose-response fit (second estimate […] by varying fibril concentration)
Assay type: binding

O=C1NN(c2ccccc2)C(=O)C1=Cc1coc2ccc(Cl)cc2c1=O [69.2, compound 69.2] was tested, and the Kd was 6 ± 1 µM.
